Results as given in patent US20240190916A1, “NOVEL PEPTIDE” (HYSENSBIO, priority 2022, published 2024).

How the values were obtained:
Assay type in all cases: cell-based
DMP1 gene = assay: DMP1 mRNA level by real-time PCR in human-derived mesenchymal stem cells; conditions: compared to untreated control
Procedure: (§1) It was cultured at 37° C. in humid air containing 5% CO2 and used for the experiment. Human mesenchymal stem cells (hBMSCs) were purchased from Lonza (LONZA, Switzerland) and used. hBMSCs were cultured in a-MEM (Invitrogen) medium supplemented with 10% heat-inactivated bovine serum.
(§2) Total RNA of human dental pulp cells and mesenchymal stem cells was isolated using a TRIzol reagent. cDNA was synthesized using 2 μg of total RNA, 1 μl of reverse transcriptase, and 0.5 μg of oligo (dT). The synthesized cDNA was used for real-time polymerase chain reaction. The real-time polymerase chain reaction was performed in ABI PRISM 7500 sequence detection system (Applied Biosystems) using SYBR GREEN PCR Master Mix (Takara, Japan). The real-time polymerase chain reaction was performed at 94° C., 1 min; 95° C., 15 sec-60° C., 34 sec was performed under the condition of repeating 40 cycles. An analysis of the results was evaluated using a comparative cycle threshold (CT) method, and primer base sequences are listed in Table 9.
(§3) BSP and DMP1 genes are used as markers for differentiation of osteoblasts and cementoblasts, and are known as important genes for calcification of a bone and cementum. The effects of each group of peptides on BSP and DMP1 mRNA expression were confirmed by a real-time PCR (Tables 11 and 12).

DSPP gene = assay: DSPP mRNA level by real-time PCR in human dental pulp cells; conditions: peptide 10 ug/ml, compared to untreated control
Procedure: Human pulp tissue cells were isolated from wisdom teeth of 10 adults (18-22 years old) at Seoul National University Dental Hospital. Specifically, all experiments were performed with the patient's consent after approval from the hospital's Institutional Review Board, and wisdom teeth are cut according to a method of Jung H S et al (J Mol Histol. (2011)), exposing the pulp and isolating the pulp with forceps. The isolated pulp was minced on both sides, placed in a 60 mm dish, covered with a cover slip, and then cultured in Dulbecco's Modified Eagle medium. It is known that human dental pulp cells can differentiate into odontoblasts, osteoblasts, cementoblasts and periodontal ligament cells under various conditions (Tissue Eng Part A. 2014 April; 20(7-8): 1342-51).
as §2
The effect of each group of peptides on DSPP mRNA expression was confirmed by real-time PCR (Table 10).

BSP gene = assay: BSP mRNA level by real-time PCR in human-derived mesenchymal stem cells; conditions: compared to untreated control
Procedure: as §1, §2, §3

Row | Sequence | mRNA level of DMP1 gene, DMP1 gene expression, Average (DMP1 gene) [fold] | mRNA level of DSPP gene, Average (DSPP gene) [fold] | mRNA level of BSP gene, BSP gene expression, Average (BSP gene) [fold]
1 | KYKAKKKSYK [SEQ ID NO: 9] | 9.869 | 3.057 | 2.084
2 | KYKAKKRNYK [SEQ ID NO: 2] | 10.361 | 7.361 | 2.713
3 | KYKAKKRSYK [SEQ ID NO: 10] | 9.998 | 3.811 | 1.998
4 | KYKAKRKNYK [SEQ ID NO: 3] | 11.271 | 8.572 | 2.715
5 | KYKAKRKSYK [SEQ ID NO: 11] | 8.795 | 3.362 | 2.226
6 | KYKAKRRNYK [SEQ ID NO: 5] | 11.001 | 6.67 | 2.77
7 | KYKAKRRSYK [SEQ ID NO: 13] | 9.237 | 2.535 | 2.637
8 | KYKARKKNYK [SEQ ID NO: 4] | 9.720 | 9.702 | 2.307
9 | KYKARKKSYK [SEQ ID NO: 12] | 7.997 | 2.911 | 1.918
10 | KYKARKRNYK [SEQ ID NO: 8] | 11.120 | 7.021 | 2.617
11 | KYKARKRSYK [SEQ ID NO: 16] | 10.014 | 2.906 | 2.307
12 | KYKARRKNYK [SEQ ID NO: 6] | 9.897 | 7.705 | 2.935
13 | KYKARRKSYK [SEQ ID NO: 14] | 9.407 | 2.136 | 1.729
14 | KYKARRRNYK [SEQ ID NO: 7] | 10.236 | 8.215 | 2.548
15 | KYKARRRSYK [SEQ ID NO: 15] | 8.991 | 3.620 | 2.119
16 | KYRAKKKNYK [SEQ ID NO: 17] | 9.400 | 2.192 | 2.392

Row | Sequence | mRNA level of DMP1 gene, DMP1 gene expression, Average (DMP1 gene) [fold] | mRNA level of DSPP gene, Average (DSPP gene) [fold] | mRNA level of BSP gene, BSP gene expression, Average (BSP gene) [fold]
17 | KYRAKKKSYK [SEQ ID NO: 25] | 9.055 | 1.919 | 2.152
18 | KYRAKKRNYK [SEQ ID NO: 18] | 9.161 | 2.061 | 2.316
19 | KYRAKKRSYK [SEQ ID NO: 26] | 8.991 | 1.811 | 2.081
20 | KYRAKRKNYK [SEQ ID NO: 19] | 8.999 | 1.772 | 2.537
21 | KYRAKRKSYK [SEQ ID NO: 27] | 8.537 | 1.620 | 2.195
22 | KYRAKRRNYK [SEQ ID NO: 21] | 9.100 | 2.167 | 1.995
23 | KYRAKRRSYK [SEQ ID NO: 29] | 9.525 | 2.125 | 1.978
24 | KYRARKKNYK [SEQ ID NO: 20] | 8.537 | 1.702 | 2.91
25 | KYRARKKSYK [SEQ ID NO: 28] | 9.198 | 2.311 | 2.084
26 | KYRARKRNYK [SEQ ID NO: 24] | 9.333 | 2.021 | 2.276
27 | KYRARKRSYK [SEQ ID NO: 32] | 8.107 | 1.861 | 1.893
28 | KYRARRKNYK [SEQ ID NO: 22] | 7.997 | 2.005 | 1.893
29 | KYRARRKSYK [SEQ ID NO: 30] | 8.683 | 1.836 | 2.222
30 | KYRARRRNYK [SEQ ID NO: 23] | 9.105 | 1.915 | 2.037
31 | KYRARRRSYK [SEQ ID NO: 31] | 9.100 | 1.620 | 1.798
